# How the values were obtained:
# [1] = test system: Aβ-GFP SH-SY5Y cells; assay: Neurite outgrowth analysis; format: cell-based, Human; details: 5 µM
# Procedure: Aβ-GFP SH-SY5Y cells (6 × 10^4 cells) were seeded on a 24-well plate with retinoic acid (10 µM) on day 1. Tested coumarins (5 µM) and doxycycline (5 μg/mL) were added on day 2, as described. On day 8, the cells were washed with phosphate-buffered saline (PBS) twice and fixed in 4% paraformaldehyde at 4 °C for 15 min. Cells were permeabilized with Triton X-100 (0.1%) for 10 min, blocked with bovine serum albumin (3%) for 20 min, and stained with anti-neuronal TUBB3 antibody (1:1000; Covance, Princeton, NJ, USA) at 4 °C overnight. The next day, cells were washed with PBS twice and stained by a secondary donkey anti-rabbit Alexa Fluor® 555 antibody (1:1000; Thermo Fisher Scientific) and 4′,6-diamidino-2-phenylindole (DAPI; 0.1 µg/mL; Sigma-Aldrich) at room temperature for 1 h. Neuronal images from at least 60 individual fields (150–250 neurons per field) per experiment were captured at excitation 531/40 nm and emission 593/40 nm wavelengths using an ImageXpress micro confocal high-content imaging system (Molecular Devices). Neurite total length (μm) and numbers of process (the number of primary neurites originated from the cell body of a neuron) and branch (the number of secondary neurites extended from primary neurites) were analyzed using a MetaXpress neurite outgrowth application module (Molecular Devices). For each sample, around 6000 cells were analyzed in each of three independent experiments.
# (§1) Lentiviral short hairpin RNA (shRNA) targeting TRKB (TRCN0000002243, TRCN0000002245, and TRCN0000002246) and a negative-scrambled control (TRC2.Void) were obtained from the National RNAi Core Facility, IMB/GRC, Academia Sinica (Taipei, Taiwan). As described, cells were plated on 6- or 24-well plates, with retinoic acid added on day 1. Cells were infected with lentivirus (multiplicity of infection, 3 for each shRNA), with polybrene (8 µg/mL; Sigma-Aldrich) on the next day. Cells were pretreated with tested compounds (5 µM) for 8 h after changing medium, followed by doxycycline on day 3. Cells were collected for further analysis on day 9. The hairpin sequences of targeting shRNA were below: • TRCN0000002243: 5’-[…]ctcgag[…]-3’ • TRCN0000002245: 5’-[…]ctcgagATGTT-[…]-3’ • TRCN0000002246: 5’-[…]ctcgag[…]-3’ • TRC2.Void: 5’-[…]ctcgag[…]-3’
# [2] = test system: TRKB; assay: Western blot, TRKB and p-TRKB; format: cell-based, Human; details: 5 µM
# Procedure: (§2) Cellular proteins were prepared using a lysis buffer containing NaCl (150 mM), ethylene diamine tetraacetic acid (EDTA, 1 mM, pH8.0), Tris-HCl (50 mM, pH8.0), ethylene glycol tetraacetic acid (EGTA, 1 mM, pH8.0), sodium dodecyl sulfate (SDS, 0.1%), sodium deoxycholate (SD, 0.5%), Triton X-100 (1%), and protease (Sigma-Aldrich), and phosphatase (Abcam, Cambridge, MA, USA) inhibitor cocktails. After quantitation by protein assay kit (Bio-Rad, Hercules, CA, USA), 20 µg proteins were separated by SDS-polyacrylamide (10%) gel electrophoresis and transferred to polyvinylidene difluoride (PVDF) membranes (Sigma-Aldrich) using a Mini Trans-Blot cell (Bio-Rad). After blocking, the membrane was probed with anti-TRKB, anti-p-TRKB (Y516), anti-p-TRKB (Y817) (1:500; Cell Signaling, Danvers, MA, USA), anti-ERK, anti-p-ERK (T202/Y204) (1:1000; Cell Signaling), anti-AKT, anti-p-AKT (S473) (1:1000; Cell Signaling), anti-CREB, anti-p-CREB (S133) (1:1000; Millipore, Billerica, MA, USA), anti-BDNF, anti-BCL2 (1:500; Santa Cruz Biotechnology, Santa Cruz, CA, USA), anti-BAX (1:1000; Cell Signaling), anti-β-tubulin (1:500; Sigma-Aldrich), or anti-GAPDH (1:1000, MDBio, Taipei, Taiwan) antibody. The immune complexes were detected using goat anti-mouse or goat anti-rabbit IgG antibody conjugated with horseradish peroxidase (1:5000; GeneTex, Irvine, CA, USA) and chemiluminescent substrate (Millipore).
# as §1
# [3] = test system: AKT; assay: Western blot, p-AKT; format: cell-based, Human; details: 5 µM; induced untreated 81%
# Procedure: as §2
# [4] = test system: ERK; assay: Western blot, p-ERK; format: cell-based, Human; details: 5 µM; induced untreated 79%
# Procedure: as §2
# [5] = test system: CREB; assay: Western blot, p-CREB; format: cell-based, Human; details: 5 µM; induced untreated 81%
# Procedure: as §2
# [6] = test system: BDNF; assay: Western blot, BDNF; format: cell-based, Human; details: 5 µM
# Procedure: as §2
# [7] = test system: BCL2; assay: Western blot, BCL2; format: cell-based, Human; details: 5 µM; induced untreated 72%
# Procedure: as §2
# [8] = test system: BAX; assay: Western blot, BAX; format: cell-based, Human; details: 5 µM; induced untreated 182%
# Procedure: as §2
# [9] = in vitro; details: for Papp at 18 h, 1 μM: PAMPA
# Procedure: PAMPA was used to predict the penetration of the tested compounds across the BBB. […] The filter PVDF membrane (pore size 0.45 μm; Millipore) was coated with 4 μL of porcine polar brain lipid (20 mg/mL; Avanti Polar Lipids, Alabaster, AL, USA) in dodecane and the acceptor well filled with 200 μL of 5% DMSO in PBS. The filter plate was carefully placed on the donor plate to form a sandwich plate at room temperature for 18 h. After the permeation time, the filter and donor plates were separated. The concentration of the tested compound in the donor and acceptor wells was measured by an AB Sciex QTrap 5500 mass spectrometer (Applied Biosystems) linked to a 1200 HPLC system (Agilent Technologies, Palo Alto, CA, USA). The concentrations of the QC compounds were determined by a Tecan Infinite M200 Pro microplate reader (Switzerland). The effective permeability coefficient (Pe) was calculated as described. Each compound was tested in triplicate.
# [10] = target: T1, Aβ42 peptide (Homo sapiens, UniProt P05067); assay: Thioflavin T aggregation assay; format: biochemical; details: for Aβ aggregation inhibition (in words): compound 20 μM, thioflavin T assay
# T1 construct: Aβ42 peptide (10 μM; Kelowna Int’l Scientific Inc., New Taipei City, Taiwan); purchased Kelowna Int’l Scientific Inc., New Taipei City, Taiwan
# T1 sequence (P05067 672-713 limits assumed): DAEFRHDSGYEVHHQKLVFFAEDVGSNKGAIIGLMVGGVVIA
# Procedure: To form Aβ aggregation, Aβ42 peptide (10 μM; Kelowna Int’l Scientific Inc., New Taipei City, Taiwan) was incubated with tested compounds (5–20 μM) in 150 mM NaCl and 20 mM Tris-HCl (pH8.0) at 37 °C for 48 h. Thioflavin T (10 μM; Sigma-Aldrich) was added to the Aβ mixture and incubated at room temperature for 5 min. The fluorescence intensity was recorded at 420 nm excitation and 485 nm emission by an FLx800 microplate reader (Bio-Tek, Winooski, VT, USA). Half maximal effective concentration (EC50) was estimated by a method of interpolation.
# [11] = in vitro; format: cell-based; details: human
# Procedure: To induce neuronal differentiation, 2 × 10^4 Aβ-GFP SH-SY5Y cells were seeded on a 96-well plate with retinoic acid (10 µM; Sigma-Aldrich). Cells were pretreated with tested compounds (0.2–5 µM) on day 2 for 8 h and then with doxycycline (5 μg/mL) to induce Aβ-GFP expression. Medium containing retinoic acid compound and doxycycline was refreshed every 2 days for 6 days. Then, cells were stained with Hoechst 33342 (0.1 µg/mL; Sigma-Aldrich) at 37 °C for 30 min. Cell images were recorded at 482/35 nm excitation and 536/40 nm emission wavelengths (ImageXpres Micro Confocal High-Content Imaging System; Molecular Devices, Sunnyvale, CA, USA), and analyzed by MetaXpress (Molecular Devices).
molecule,measurement,setting,value
"O=c1cc(-c2ccccc2)oc2c(O)c(O)ccc12 [7,8-DHF, reference compound]",Neurite process number,"[1]; TRKB shRNA-infected cells, untreated 2.9",3.5
same,Neurite branch number,"[1]; scrambled shRNA-infected cells, untreated 2.4",3.0–3.1
same,Neurite process number,"[1]; scrambled shRNA-infected cells, untreated 3.5",3.9–4.0
same,Neurite length,"[1]; scrambled shRNA-infected cells, untreated 25.3",30.7–30.9 µm
same,p-TRKB (Y516) protein level relative to uninduced cells (100%),[2]; induced untreated 40%,92–100%
same,p-TRKB (Y817) protein level relative to uninduced cells (100%),[2]; induced untreated 71%,94–108%
same,TRKB expression relative to uninduced cells (100%),"[2]; scrambled shRNA-infected Aβ-expressing cells, untreated 80%",77–81%
same,p-AKT (S473) protein level relative to uninduced cells (100%),[3],91–110%
same,p-ERK (T202/Y204) protein level relative to uninduced cells (100%),[4],95–107%
same,p-CREB (S133) protein level relative to uninduced cells (100%),[5],98–101%
same,BDNF 14 kDa protein level relative to uninduced cells (100%),[6]; induced untreated 42%,124–140%
same,BDNF 32 kDa protein level relative to uninduced cells (100%),[6]; induced untreated 88%,113–119%
same,BCL2 protein level relative to uninduced cells (100%),[7],104–116%
same,BAX protein level relative to uninduced cells (100%),[8],126%
same,BBB Permeability Classification,[9]; PAMPA-BBB,High (Pe > 4 × 10^−6 cm/s (high))
same,Measured Pe (effective permeability),"[9]; PAMPA-BBB, room temperature 18 h, triplicate",6.32 ± 1.35 10^−6 cm/s
"NC(=O)N1c2ccccc2C=Cc2ccccc21 [Carbamazepine, carbamazepine]","Papp at 18 h, 1 μM",[9]; BBB Permeability Classification,> 4 ×10⁻⁶ cm/s
same,"Papp at 18 h, 1 μM",[9]; Measured Pe (effective permeability),9.85 ± 0.6 ×10⁻⁶ cm/s
"CC(Oc1ccc2cc(C(=O)c3ccccc3)c(=O)oc2c1)C(=O)O (stereo not shown) [ZN009, 2-((3-benzoyl-2-oxo-2H-chromen-7-yl)oxy)propanoic acid]",Aβ aggregation inhibition (in words),[10],did not inhibit Aβ aggregation
"O=C(c1ccc(Cl)cc1)c1c(O)c2ccccc2oc1=O [ZN010, 3-(4-chlorobenzoyl)-4-hydroxy-2H-chromen-2-one]",Aβ aggregation inhibition (in words),[10],did not inhibit Aβ aggregation
"COc1ccc(C(=O)c2cc3ccc(O)cc3oc2=O)cc1 [ZN011, 7-hydroxy-3-(4-methoxybenzoyl)-2H-chromen-2-one]",Aβ aggregation inhibition (in words),[10],did not inhibit Aβ aggregation
"COc1cc(/C=C/C(=O)CC(=O)/C=C/c2ccc(O)c(OC)c2)ccc1O [curcumin, Curcumin, reference compound]",Thioflavin T fluorescence (Aβ aggregation),"[10]; compound 20 µM, Aβ42 10 μM, 37 °C 2 days, 621 AU without compound, 151 AU without incubation",339 AU
same,"viability at 6 days, 10 µM",[11],< 80%
same,Neurite branch number,"[1]; induced untreated 1.8, uninduced 2.8",2.4–2.5
same,Neurite process number,"[1]; induced untreated 3.3, uninduced 4.4",4.2–4.3
same,Neurite total length,"[1]; induced untreated 23.9, uninduced 31.2",29.1–29.3 μm
lucifer yellow,Penetration of integrity marker (in words),"[9]; PAMPA-BBB, indicates good membrane integrity",undetectable
same,% Transport,"[9]; PAMPA-BBB, integrity marker",0.00 (% Transport)
